Data on ten compounds can be found in ChEMBL document CHEMBL1201862, “PubChem BioAssay data set” (2004).

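Briefly, cells in 96-well plates were exposed to five compound concentrations for 48 h, and endpoints were estimated by linear interpolation. GI50 is the concentration that inhibits growth by half.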 Calls of active or inactive are those of the source. Rule as the data show it: active = GI50 up to about 1.1 µM and inactive = higher.

Among the test systems are KM12; MDA-N; Hs-578T; HOP-62; A498; Malme-3M; SK-OV-3; NCI-H460; T47D; U-251; TK-10; RXF 393; OVCAR-3; DU-145; SNB-19; BT-549; SNB-75; NCI-H23; HCT-116.
Holding throughout (assay): NCI tumour cell line growth inhibition, 48 h

Take `CC(=O)O[C@H]1CCc2c(cc(N)c3c2C(=O)C[C@]2(C)C([C@H](C)CCCC(C)C)CCC32C)C1(C)C` (stereo not given in full): the GI50 was > 100 µM (inactive) in the assay on KM12; > 100 µM (inactive) in the assay on MDA-N; 17.1 µM (inactive) in the assay on Hs-578T; > 100 µM (inactive) in the assay with HOP-62; 73.6 µM (inactive) with A498; > 100 µM (inactive) with Malme-3M. Moreover, the GI50 with SK-OV-3, in the assay on NCI-H460, in the assay with T47D, in the assay with U-251, with TK-10 and with RXF 393 was > 100 µM (inactive) in each case. Moreover, the GI50 with OVCAR-3 is > 100 µM (inactive); in the assay on DU-145 it was > 100 µM (inactive); with SNB-19, > 100 µM (inactive); in the assay with BT-549, > 100 µM (inactive); in the assay with SNB-75, > 100 µM (inactive); in the assay on NCI-H23, 60.5 µM (inactive). The GI50 with HCT-116 was 89.7 µM (inactive).

`Cc1ccc(S(=O)(=O)NC(CN)C(=O)O)cc1` (stereo not given): the GI50 with KM12, in the assay with MDA-N, with Hs-578T, with HOP-62, with A498 and in the assay on Malme-3M was > 100 µM (inactive) throughout. Also, the GI50 with SK-OV-3, in the assay with NCI-H460, in the assay on T47D, in the assay with U-251, with TK-10 and in the assay with RXF 393 was > 100 µM (inactive) each time. Also, the GI50 in the assay on OVCAR-3, in the assay with DU-145, in the assay on SNB-19, with BT-549, in the assay with SNB-75 and in the assay with NCI-H23 was > 100 µM (inactive) throughout. Moreover, in the assay on HCT-116, the GI50 was > 100 µM (inactive).

For `C[C@@H]1C[C@H](O)[C@]2(O)O[C@@H]3C[C@@]4(C=O)[C@@H](CC=C5[C@@H]4CC[C@]4(C)[C@@H](C6=CC(=O)OC6)CC[C@]54O)C[C@H]3O[C@@H]2O1`, the GI50 is 0.0337 µM (active) with KM12; 0.042 µM (active) with MDA-N; < 0.01 µM (active) with Hs-578T; < 0.0121 µM (active) with HOP-62; < 0.01 µM (active) in the assay on A498; < 0.01 µM (active) in the assay with Malme-3M. The GI50 with SK-OV-3 was 0.0426 µM (active); in the assay with NCI-H460, < 0.0129 µM (active); in the assay on T47D it was 0.0218 µM (active); with U-251, < 0.0214 µM (active); in the assay with TK-10, < 0.01 µM (active); in the assay with RXF 393 it was < 0.0196 µM (active). For the same compound, the GI50 is 0.0131 µM (active) in the assay on OVCAR-3; < 0.0163 µM (active) in the assay on DU-145; 0.218 µM (active) in the assay with SNB-19; < 0.015 µM (active) in the assay on BT-549; 0.112 µM (active) with SNB-75; 0.0118 µM (active) in the assay with NCI-H23. Moreover, in the assay on HCT-116, the GI50 was 0.0143 µM (active).

Consider `O=[N+]([O-])c1ccc2c(c1)nc(Cc1ccc(Cl)cc1)n2C[C@@H]1CCCN2CCCCC12` (stereo not given in full), for which the GI50 is 13.5 µM (inactive) in the assay on KM12; 12.9 µM (inactive) in the assay on MDA-N; 13.5 µM (inactive) in the assay on Hs-578T; 20.5 µM (inactive) in the assay with HOP-62; 6.05 µM (inactive) in the assay on A498; 9.16 µM (inactive) in the assay with Malme-3M. The GI50 in the assay with SK-OV-3 was 18.9 µM (inactive); with NCI-H460, 14 µM (inactive); in the assay on T47D it was 16.7 µM (inactive); in the assay on U-251, 18.6 µM (inactive); with TK-10 it was 17.6 µM (inactive); with RXF 393, 11.6 µM (inactive). The GI50 with OVCAR-3 was 15.5 µM (inactive); in the assay with DU-145, 17.7 µM (inactive); with SNB-19 it was 22.8 µM (inactive); in the assay with BT-549, 13 µM (inactive); with SNB-75 it was 15 µM (inactive); with NCI-H23 it was 14.9 µM (inactive). Also, the GI50 in the assay with HCT-116 was 10.5 µM (inactive).

Regarding `CC(C)CC1N=C(OCc2ccccc2)OC1=O` (stereo not given), the GI50 in the assay with KM12, in the assay with MDA-N, with Hs-578T, with HOP-62, in the assay with A498 and in the assay with Malme-3M was > 100 µM (inactive) throughout. The GI50 with SK-OV-3, with NCI-H460, in the assay on T47D, in the assay with U-251, in the assay with TK-10 and in the assay on RXF 393 was > 100 µM (inactive) throughout. Also, the GI50 with OVCAR-3, in the assay with DU-145, in the assay with SNB-19, with BT-549, in the assay on SNB-75 and with NCI-H23 was > 100 µM (inactive) throughout. Besides, the GI50 in the assay with HCT-116 was > 100 µM (inactive).

In the case of `C#C/C=C\CCCCCCCCCCCCCC/C=C\CCCCC#CC(O)C#CCCCC/C=C\CCCCCC/C=C/C(O)C#C` (stereo not given), the GI50 is 7.08 µM (inactive) in the assay on KM12; 3.8 µM (inactive) in the assay on MDA-N; 42.5 µM (inactive) with Hs-578T; > 62.8 µM (inactive) with HOP-62; 30.1 µM (inactive) in the assay on A498; 17.1 µM (inactive) in the assay with Malme-3M. Moreover, the GI50 in the assay on SK-OV-3 was > 75 µM (inactive); in the assay with NCI-H460 it was 39.9 µM (inactive); with T47D, 7.21 µM (inactive); in the assay with U-251 it was 31.9 µM (inactive); with TK-10, 21.6 µM (inactive); in the assay on RXF 393, 15.8 µM (inactive). The GI50 in the assay with OVCAR-3 was 32.2 µM (inactive); in the assay on DU-145, 30.9 µM (inactive); in the assay with SNB-19, 25.1 µM (inactive); with BT-549, > 71.9 µM (inactive); with SNB-75, 42.7 µM (inactive); in the assay on NCI-H23, 9.64 µM (inactive). Moreover, the GI50 in the assay with HCT-116 is 4.67 µM (inactive).

Regarding `COC(=O)C1(Cc2cccc(C)c2)Cc2c(C)cccc2C1=O` (stereo not given), the GI50 was 28.1 µM (inactive) with KM12; 14.3 µM (inactive) in the assay with MDA-N; 38.5 µM (inactive) in the assay with Hs-578T; 59.6 µM (inactive) with HOP-62; 34 µM (inactive) in the assay on A498; 33.9 µM (inactive) in the assay on Malme-3M. Also, the GI50 with SK-OV-3 was 58.6 µM (inactive); with NCI-H460 it was 45.4 µM (inactive); in the assay on T47D, 28.4 µM (inactive); with U-251, 38.7 µM (inactive); in the assay on TK-10, 89.3 µM (inactive); with RXF 393, 29.4 µM (inactive). Moreover, the GI50 with OVCAR-3 is 24.5 µM (inactive); in the assay with DU-145, > 100 µM (inactive); with SNB-19 it was 98.9 µM (inactive); in the assay with BT-549 it was 56.1 µM (inactive); with SNB-75, 43.3 µM (inactive); in the assay with NCI-H23, 37.5 µM (inactive). Also, in the assay with HCT-116, the GI50 was 36.4 µM (inactive).

As for `O=C1C=C/C(=N/c2cccc3c(/N=C4/C=CC(=O)O4)cccc23)O1`, the GI50 in the assay on KM12 was > 100 µM (inactive); with MDA-N, 27.3 µM (inactive); in the assay with Hs-578T, > 100 µM (inactive); in the assay with HOP-62, > 100 µM (inactive); in the assay with A498, > 100 µM (inactive); with Malme-3M, 22.2 µM (inactive). For the same compound, the GI50 is > 100 µM (inactive) with SK-OV-3; > 100 µM (inactive) with NCI-H460; 33.7 µM (inactive) in the assay on T47D; > 100 µM (inactive) in the assay with U-251; 17.7 µM (inactive) in the assay on TK-10; 20.7 µM (inactive) with RXF 393. Further, the GI50 with OVCAR-3 is 51.6 µM (inactive); in the assay on DU-145, > 100 µM (inactive); in the assay on SNB-19, > 100 µM (inactive); with BT-549, 86.3 µM (inactive); in the assay with SNB-75 it was > 100 µM (inactive); in the assay with NCI-H23 it was 50.4 µM (inactive). Also, the GI50 with HCT-116 is 24.8 µM (inactive).

As for `Cc1cc2nc(C#N)c(N3CCN(c4ccc([N+](=O)[O-])cc4)CC3)nc2cc1C`, the GI50 with KM12 is > 100 µM (inactive); with MDA-N it was > 79.3 µM (inactive); in the assay with Hs-578T, 29.1 µM (inactive); in the assay on HOP-62, 40.6 µM (inactive); in the assay on A498, > 75.2 µM (inactive); in the assay on Malme-3M, > 100 µM (inactive). Also, the GI50 with SK-OV-3 was > 69.5 µM (inactive); in the assay on NCI-H460, > 85.9 µM (inactive); in the assay with T47D, 66.2 µM (inactive); with U-251 it was > 74.6 µM (inactive); in the assay on TK-10, > 66.5 µM (inactive); with RXF 393, > 72.9 µM (inactive). For the same compound, the GI50 with OVCAR-3 is > 100 µM (inactive); in the assay on DU-145 it was > 100 µM (inactive); in the assay on SNB-19, 67 µM (inactive); in the assay with BT-549, > 100 µM (inactive); in the assay with SNB-75 it was 63.5 µM (inactive); in the assay on NCI-H23 it was > 64.9 µM (inactive). For the same compound, in the assay on HCT-116, the GI50 was > 68.4 µM (inactive).

For `O=C1N=C(c2ccccc2)O/C1=C\c1ccccc1`, the GI50 with KM12, in the assay with MDA-N, with Hs-578T, with HOP-62, with A498 and in the assay with Malme-3M was > 100 µM (inactive) throughout. Besides, the GI50 with SK-OV-3, with NCI-H460, in the assay on T47D, in the assay with U-251, with TK-10 and in the assay with RXF 393 was > 100 µM (inactive) in each case. Besides, the GI50 in the assay with OVCAR-3, with DU-145, in the assay on SNB-19, in the assay with BT-549, in the assay on SNB-75 and in the assay on NCI-H23 was > 100 µM (inactive) throughout. The GI50 in the assay with HCT-116 was > 100 µM (inactive).
